Patent publication EP4595964A1, “TREATMENT OF GM1 GANGLIOSIDOSIS” (Azafaros B.V., priority 2024, dated 2025)

What was measured:
[1] = tested on: GLB1-null Ex 2-3 cerebral organoids; assay: Neuronal survival and health in the human brain organoid model of GM1 gangliosidosis; assay type: cell-based; details: 5 nM, 500 nM; concomitant with the GM1 reduction
[2] = tested on: control or GLB1-null cerebral organoids; assay: Cellularity test in cerebral organoids; assay type: cell-based, human; details: any timepoint, 5 nM, 500 nM
[3] = tested on: GLB1-null Ex 2-3 cerebral organoids; assay type: cell-based, human

OC[C@H]1[C@@H](O)[C@H](O)[C@@H](O)CN1CCCCCOCc1ccc(-c2ccccc2)c(F)c1 [nizubaglustat]
neuronal survival and health [1]: increased | cellularity [2]: did not reduce | GM1 accumulation ([3]; 5 nM, 500 nM, weeks 18, 20 and 24, dose-dependent fashion, GLB1-null Ex 2-3 cerebral organoids): significantly reduced | level of GLB1 in the EX 2-3 cell line ([3]; Week 24, representative images (Figure 4 top panel), green stain): significantly reduces | reduced the level of GM1 ganglioside ([3]; after 24 weeks of regular (2-3 times per week) administration): at least 2 fold
